Data taken from ChEMBL document CHEMBL1201862, “PubChem BioAssay data set” (2004).
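Values below derive from 48-hour exposures of cells grown in 96-well plates, with endpoints linearly interpolated between the two concentrations bracketing the appropriate inhibition level. GI50 = concentration required for 50% inhibition of growth.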 Activity calls are given as the source filed them. Rule as the data show it: active = GI50 up to about 1.1 µM and inactive = higher.

Assays:
Assay in all cases: NCI anticancer screen, dose series, 48 h
[1] = system: RXF 393
[2] = system: SR
[3] = system: BT-549
[4] = system: Malme-3M
[5] = system: SK-OV-3
[6] = system: NCI-H23
[7] = system: NCI-H226
[8] = system: DMS-114
[9] = system: M14
[10] = system: HCT-116
[11] = system: KM12
[12] = system: IGROV-1
[13] = system: 786-0
[14] = system: HOP-62
[15] = system: A549
[16] = system: OVCAR-8
[17] = system: A498
[18] = system: SK-MEL-5
[19] = system: MDA-N
[20] = system: HOP-92

Row | Compound | GI50 [1] | GI50 [2] | GI50 [3] | GI50 [4] | GI50 [5] | GI50 [6] | GI50 [7] | GI50 [8] | GI50 [9] | GI50 [10] | GI50 [11] | GI50 [12] | GI50 [13] | GI50 [14] | GI50 [15] | GI50 [16] | GI50 [17] | GI50 [18] | GI50 [19] | GI50 [20]
1 | Cc1cc(N(CCC#N)CCC#N)ccc1/C=C1N=C(/C=C\c2ccccc2)N(c2ccc(Cl)cc2)C\1=O | > 100 µM (inactive) | > 100 µM (inactive) | 1.49 µM (inactive) | 17.7 µM (inactive) | > 87.1 µM (inactive) | 36.6 µM (inactive) | > 100 µM (inactive) | 2.13 µM (inactive) | 1.29 µM (inactive) | 6.76 µM (inactive) | 4.52 µM (inactive) | 47.3 µM (inactive) | 54.8 µM (inactive) | 5.21 µM (inactive) | > 39.9 µM (inactive) | > 40.8 µM (inactive) | > 100 µM (inactive) | 0.43 µM (active) | > 100 µM (inactive) | > 95.7 µM (inactive)
2 | NC(=O)c1ncn2c(=O)n(CCCl)nnc12 [MITOZOLOMIDE] | 160 µM (inactive) | 47.3 µM (inactive) | 83.2 µM (inactive) | 145 µM (inactive) | 52.6 µM (inactive) | 149 µM (inactive) | 158 µM (inactive) | 19.8 µM (inactive) | 195 µM (inactive) | 132 µM (inactive) | 180 µM (inactive) | 132 µM (inactive) | 28.8 µM (inactive) | 29.5 µM (inactive) | 180 µM (inactive) | 101 µM (inactive) | 191 µM (inactive) | 156 µM (inactive) | 137 µM (inactive) | 136 µM (inactive)
3 | CC(N)Cc1ccc(Cl)c(Cl)c1 (stereo not drawn) | 24.9 µM (inactive) | 20.5 µM (inactive) | – | 19.6 µM (inactive) | 74.8 µM (inactive) | > 95.1 µM (inactive) | 33.6 µM (inactive) | 24.2 µM (inactive) | 18.4 µM (inactive) | 35.1 µM (inactive) | 10.6 µM (inactive) | 51.6 µM (inactive) | 41.5 µM (inactive) | 39.5 µM (inactive) | > 100 µM (inactive) | > 66.2 µM (inactive) | 45 µM (inactive) | 16.6 µM (inactive) | – | 22.6 µM (inactive)
